Measurements published in paper PMC4601562 (Bioorganic & medicinal chemistry, 2015).

Legend:
Assay type in all cases: biochemical
vcASADH = vcASADH (Vibrio cholerae, UniProt Q9KQG2); assay: ASADH kinetic assay
spASADH [1] = target: T1, spASADH (Streptococcus pneumoniae, UniProt Q8DQ00)
T1 sequence (Q8DQ00 1-358): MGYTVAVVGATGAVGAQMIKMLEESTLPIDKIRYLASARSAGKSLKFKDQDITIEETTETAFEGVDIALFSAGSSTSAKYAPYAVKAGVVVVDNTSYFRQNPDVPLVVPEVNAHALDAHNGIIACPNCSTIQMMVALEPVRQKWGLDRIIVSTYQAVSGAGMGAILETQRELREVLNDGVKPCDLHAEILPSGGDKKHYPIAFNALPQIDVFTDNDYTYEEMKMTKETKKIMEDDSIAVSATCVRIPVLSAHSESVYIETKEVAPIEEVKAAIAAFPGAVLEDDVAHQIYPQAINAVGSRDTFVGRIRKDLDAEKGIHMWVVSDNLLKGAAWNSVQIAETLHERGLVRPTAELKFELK

spASADH [2] = conditions: ratio of Ki vcASADH / spASADH

vcASADH, sequence (Q9KQG2 whole entry): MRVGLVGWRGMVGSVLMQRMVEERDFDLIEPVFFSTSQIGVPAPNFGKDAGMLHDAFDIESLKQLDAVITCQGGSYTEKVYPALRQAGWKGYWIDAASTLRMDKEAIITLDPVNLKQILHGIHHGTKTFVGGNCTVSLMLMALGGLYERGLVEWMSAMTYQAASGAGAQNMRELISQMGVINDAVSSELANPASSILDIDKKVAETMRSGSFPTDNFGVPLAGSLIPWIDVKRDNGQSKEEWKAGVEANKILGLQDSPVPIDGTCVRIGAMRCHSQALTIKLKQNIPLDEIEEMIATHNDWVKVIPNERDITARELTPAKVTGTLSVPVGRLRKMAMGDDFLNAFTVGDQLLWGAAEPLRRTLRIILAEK

SMILES: O=C([O-])CCNCc1ccc(C(=O)[O-])c(C(=O)[O-])c1.[Na+].[Na+].[Na+] [compound 4, N-carboxyethyl-3,4-dicarboxybenzylamine]
- inhibition of vcASADH (in words) (vcASADH): did not show appreciable inhibition

SMILES: CN(CC(=O)[O-])Cc1cccc(C(=O)[O-])c1C(=O)[O-].[Na+].[Na+].[Na+] [compound 9, N-methyl, N-carboxymethyl-2,3-dicarboxybenzylamine]
- inhibition of vcASADH (in words) (vcASADH): no inhibition

SMILES: O=C([O-])CN(Cc1ccc(C(=O)[O-])c(C(=O)[O-])c1)c1ccc(-c2ccccc2)cc1.[Na+].[Na+].[Na+] [compound 17, N-(4-biphenyl)-N-carboxymethyl-3,4-dicarboxybenzylamine]
- improved inhibition of spASADH relative to the parent benzyl derivative (spASADH [1]; relative to parent benzyl derivative (13)): 25 fold

SMILES: NC(=O)c1ccc(CN(CC(=O)[O-])Cc2ccc(C(=O)[O-])c(C(=O)[O-])c2)cc1.[Na+].[Na+].[Na+] [compound 32, N-(4-carboxamidebenzyl)-N-carboxymethyl-3,4-dicarboxybenzylamine]
- loss of affinity (spASADH [1]; carboxamide (32) relative to p-carboxylbenzyl derivative (31)): 3 fold

SMILES: CC(C)(C)c1ccc(CN(CC(=O)[O-])Cc2ccc(C(=O)[O-])c(C(=O)[O-])c2)cc1.[Na+].[Na+].[Na+] [compound 33, N-(4-t-butylbenzyl)-N-carboxymethyl-3,4-dicarboxybenzylamine]
- selectivity for spASADH relative to vcASADH (spASADH [2]): over 40 fold
